Measured values taken from US11046716B2, “Beta-lactamase inhibitors” (priority 2015, dated 2021).
pIC50: −log10 of the molar value.

Assays:
[1] = target: T1, SHV-5 (Klebsiella pneumoniae, UniProt P0A3M1); assay: β-lactamase enzyme inhibition assay, SHV-5 (cefotaxime substrate); assay type: biochemical
T1 construct: made in house; host or cells: E. coli BL21(DE3)
Method in brief: (§1)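 Native untagged β-lactamases were expressed in E. coli BL21(DE3), then purified by cation exchange and gel filtration. Enzyme was preincubated with inhibitor for 15 min at 37 °C before substrate was added. Imipenem (A300) served KPC-2 and cefotaxime (A260) served SHV-5. IC50 was taken from initial hydrolysis rates relative to no-inhibitor controls.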

[2] = target: T2, AmpC (Enterobacter cloacae, UniProt P05364); assay: β-lactamase enzyme inhibition assay, p99 AmpC (nitrocefin substrate); assay type: biochemical
T2 construct: made in house; host or cells: E. coli BL21(DE3)
Method in brief: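 Native untagged β-lactamases were expressed in E. coli BL21(DE3), then purified by cation exchange and gel filtration. Enzyme was preincubated with inhibitor for 15 min at 37 °C before substrate was added. IC50 was taken from initial hydrolysis rates relative to no-inhibitor controls.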

[3] = test system: P. aeruginosa expressing the Class B carbapenemase VIM-2; assay: Broth microdilution MIC assay with meropenem, P. aeruginosa VIM-2; assay type: cell-based; settings: Fixed Mero (meropenem) 4 μg/mL; P. aerug. 2775 VIM-2
Method in brief: (§2)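 Test compound was titrated 2-fold from 16 to 0.125 μg/mL in cation-adjusted Mueller Hinton broth against a fixed 4 μg/ml β-lactam overlay. Plates were inoculated per CLSI broth microdilution, incubated 16-20 hours at 37° C, and the MIC of the test compound was read visually.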

[4] = test system: K. pneumoniae expressing the Class A carbapenemase KPC-2; assay: Broth microdilution MIC assay with meropenem, K. pneumoniae KPC-2; assay type: cell-based; settings: Fixed Mero (meropenem) 4 μg/mL; K. p. 156319 KPC-3
Method in brief: as §2

[5] = target: OXA-48 (UniProt Q6XEC0); assay: β-lactamase enzyme inhibition assay, Class D oxacillinase; assay type: biochemical; settings: read-out: OXA-48
[6] = target: T3, KPC-2 (Klebsiella pneumoniae, UniProt Q9F663); assay: β-lactamase enzyme inhibition assay, KPC-2 (imipenem substrate); assay type: biochemical; settings: Class A; imipenem substrate, 300 nm; read-out: KPC-2
T3 construct: made in house; host or cells: E. coli BL21(DE3)
Method in brief: as §1

[7] = test system: E. cloacae expressing the Class C P99; assay: Broth microdilution MIC assay with ceftazidime, E. cloacae P99; assay type: cell-based; settings: Fixed CAZ (ceftazidime) 4 μg/mL; E. cl. 144200 p99 AmpC
Method in brief: as §2

[8] = test system: E. coli expressing the Class A Extended Spectrum Beta-Lactamase (ESBL) CTX-M-15; assay: Broth microdilution MIC assay with ceftazidime, E. coli CTX-M-15; assay type: cell-based; settings: Fixed CAZ (ceftazidime) 4 μg/mL; E. coli ESBL4 CTX-M-15
Method in brief: as §2

[9] = test system: K. pneumoniae expressing the class A carbapenemase KPC-2 and the class B carbapenemase VIM-4; assay: Broth microdilution MIC assay with meropenem, K. pneumoniae KPC-2 and VIM-4; assay type: cell-based; settings: Fixed Mero (meropenem) 4 μg/mL; K. p. A-1797 KPC-2 VIM-4
Method in brief: as §2

[10] = target: T4, VIM-2 (Escherichia coli, UniProt Q5U7L7); assay: β-lactamase enzyme inhibition assay, VIM-2 (nitrocefin substrate); assay type: biochemical; settings: Class B; nitrocefin substrate, 486 nm; read-out: VIM-2
T4 construct: made in house; host or cells: E. coli BL21(DE3)
Method in brief: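 Purified VIM-2 (Q sepharose anion exchange, Hepes pH 7.5, >90% pure) was preincubated with inhibitor at 37 °C for 15 min, then nitrocefin added at 100 μM final. Absorbance at 486 nm was followed for 10 min; IC50 was taken from maximum hydrolysis rates relative to inhibitor-free controls.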

[11] = test system: K. pneumoniae producing the Class D carbapenemase OXA-48; assay: Broth microdilution MIC assay with meropenem, K. pneumoniae OXA-48; assay type: cell-based; settings: Fixed Mero (meropenem) 4 μg/mL; K. p. 11978 OXA-48
Method in brief: as §2

T2 sequence (P05364 21-381): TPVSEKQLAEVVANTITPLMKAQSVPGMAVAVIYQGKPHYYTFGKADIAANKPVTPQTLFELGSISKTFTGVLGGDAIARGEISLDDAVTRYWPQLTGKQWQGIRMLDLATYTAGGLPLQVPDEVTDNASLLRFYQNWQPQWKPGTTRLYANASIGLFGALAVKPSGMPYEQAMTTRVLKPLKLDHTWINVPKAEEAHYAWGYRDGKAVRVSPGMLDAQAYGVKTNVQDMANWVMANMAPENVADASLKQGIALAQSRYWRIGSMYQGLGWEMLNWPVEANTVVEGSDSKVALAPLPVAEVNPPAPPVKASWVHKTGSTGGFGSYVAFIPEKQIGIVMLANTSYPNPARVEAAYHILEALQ
T1 sequence (P0A3M1 22-286): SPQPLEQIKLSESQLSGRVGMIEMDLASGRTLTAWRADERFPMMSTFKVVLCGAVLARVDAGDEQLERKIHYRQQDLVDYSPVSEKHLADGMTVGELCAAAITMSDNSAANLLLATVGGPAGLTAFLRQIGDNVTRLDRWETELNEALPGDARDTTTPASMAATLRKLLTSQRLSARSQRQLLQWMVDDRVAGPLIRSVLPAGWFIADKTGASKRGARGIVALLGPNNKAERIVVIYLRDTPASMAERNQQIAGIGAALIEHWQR
T3 sequence (Q9F663 25-293, looked up): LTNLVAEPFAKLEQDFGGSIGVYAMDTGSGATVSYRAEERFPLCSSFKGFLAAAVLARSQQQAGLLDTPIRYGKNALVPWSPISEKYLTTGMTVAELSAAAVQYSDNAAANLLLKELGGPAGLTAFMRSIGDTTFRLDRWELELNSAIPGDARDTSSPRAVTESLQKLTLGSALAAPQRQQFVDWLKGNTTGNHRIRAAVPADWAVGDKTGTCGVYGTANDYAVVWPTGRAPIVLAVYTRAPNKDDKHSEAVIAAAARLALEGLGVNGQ

**Q.** Which results are given for `NCCNC(=O)c1cn(CC(=O)N[C@H]2Cc3cccc(C(=O)O)c3OB2O)nn1` [Example 37, (R)-3-(2-(4-((2-aminoethyl)carbamoyl)-1H-1,2,3-triazol-1-yl)acetamido)-2-hydroxy-3,4-dihydro-2H-benzo[e][1,2]oxaborinine-8-carboxylic acid]?
**A.** pIC50 [1]: > 7.00; pIC50 [2]: > 7.00; MIC (μg/mL) of Exemplary Compounds in presence of fixed β-lactams: P. aerug. 2775 VIM-2 [3]: C (C represents an MIC of <1 μg/mL); MIC (μg/mL) of Exemplary Compounds in presence of fixed β-lactams: K. p. 156319 KPC-3 [4]: B (B represents an MIC between 1 and 16 μg/mL inclusive); pIC50 [5]: 5.00 to 6.00; pIC50 [6]: > 7.00; MIC (μg/mL) of Exemplary Compounds in presence of fixed β-lactams: E. cl. 144200 p99 AmpC [7]: C (C represents an MIC of <1 μg/mL); MIC (μg/mL) of Exemplary Compounds in presence of fixed β-lactams: E. coli ESBL4 CTX-M-15 [8]: C (C represents an MIC of <1 μg/mL); MIC (μg/mL) of Exemplary Compounds in presence of fixed β-lactams: K. p. A-1797 KPC-2 VIM-4 [9]: C (C represents an MIC of <1 μg/mL); pIC50 [10]: > 7.00; MIC (μg/mL) of Exemplary Compounds in presence of fixed β-lactams: K. p. 11978 OXA-48 [11]: B (B represents an MIC between 1 and 16 μg/mL inclusive)
